Molecules are shown by their SMILES.

The subject of data set [1] is NCI-H727 (lung carcinoid) xenograft. As to the kind of experiment: Conjugate 1 and Vorinostat combination in NCI-H727 xenograft model. The class given is in vivo, mice. The following applies: very low SSTR2 (IRS 1).
The test system of data set [2] is NCI-H69 tumors (small cell lung cancer). As to the kind of experiment: Low doses of Conjugate 1 with Vorinostat, same-day start or pre-treatment, in NCI-H69 model. The following applies: mice. The class given is in vivo. As for the experimental part:
In a further study with NCI-H69 model (small cell lung cancer), low doses of Conjugate 1 were given to tumor bearing mice and tumor regression was tracked. 1/3 MTD of Conjugate 1 is 0.7 mpk. 1/6 MTD of Conjugate 1 is 0.35 mpk.
Mice bearing NCI-H69 tumors were treated with a combination of Vorinostat and Conjugate 1 starting on the same day or pre-treated with Vorinostat for 4 days IP then administered low doses of Conjugate 1. In total, mice received 10 total doses of Vorinostat (q.d×5) and 2 doses of Conjugate 1 (q.w.×2).
. No significant body weight loss was observed during these studies. […]

Data set [3] deals with xenograft models that over-express SSTR2. As to the kind of experiment: Preclinical single agent studies in xenograft models that over-express SSTR2. The class given is in vivo. The following applies: single agent Conjugate 1 treatment. The source says: The targeting peptide of Conjugate 1 selectively binds to SSTR2, triggers receptor internalization leading to the accumulation of the DM1 to provide antitumor activity by disrupting microtubule networks causing apoptosis and mitotic catastrophe.

The nature of data set [4]: Conjugate 1 tumor uptake with Vorinostat pre-treatment. The class given is in vivo, mice bearing NCI-H69 tumors. Conditions: Vorinostat pre-treatment vs none; P=0.03. On the procedure: In vivo, mice bearing NCI-H69 tumors were pre-treated with Vorinostat then administered Conjugate 1. Tumors were analyzed for Conjugate 1 concentrations.
In a further data set the test system is NCI-H69 cells. As to the kind of experiment: Conjugate 1 potency in vitro with and without Vorinostat pre-treatment. The class given is cell-based. As for the experimental part:
In a further study, whether increased SSTR2 expression would result in better delivery of Conjugate 1 to small cell lung cancer cells (NCI-H69) was evaluated. Conjugate 1 potency with Vorinostat pre-treatment was compared with Conjugate 1 potency without Vorinostat pre-treatment. […].

In another data set the test system is SSTR2. As to the kind of experiment: SSTR2 expression by IHC after Vorinostat treatment. It is filed as in vivo, mice bearing NCI-H69 tumors. On the procedure: Mice bearing NCI-H69 tumors (small cell lung cancer) were treated with Vorinostat for 10 days IP (q.d.×5). Tumors were collected and processed for SSTR2 expression by IHC.
On Day 6 the IRS score doubled from 6 in the vehicle to 12 in the treated group. The immunoreactive score (IRS) is determined by multiplying the staining intensity in four gradations with the percentage of positive cells in five gradations.

Turning to `COc1cc2cc(c1Cl)N(C)C(=O)C[C@H](OC(=O)[C@H](C)N(C)C(=O)CCSSC[C@H](NC(=O)[C@@H]1CSSC[C@H](NC(=O)[C@H](N)Cc3ccccc3)C(=O)N[C@@H](Cc3ccc(O)cc3)C(=O)N[C@H](Cc3c[nH]c4ccccc34)C(=O)N[C@@H](CCCCN)C(=O)N[C@@H]([C@@H](C)O)C(=O)N1)C(N)=O)C[C@]1(C)O[C@H]1[C@H](C)[C@@H]1C[C@@](O)(NC(=O)O1)[C@H](OC)C/C=C/C=C(\C)C2` [Conjugate 1], the “activity as a single agent” value in data set [1] is given as “no activity”. In addition, in data set [2], the “1/3 MTD” value was determined as 0.7 mpk and the “1/6 MTD” value was found to be 0.35 mpk. Besides, the tumor regression entry in data set [3] is “complete and sustained tumor regression”. In addition, in data set [4], the “Conjugate 1 concentrations in tumors” value is listed as “statistically significant (P=0.03) increase”. Also, the “Conjugate 1 potency” value in the data set with NCI-H69 cells (with Vorinostat pre-treatment vs without, NCI-H69 cells in vitro) is on record as “an increase in Conjugate 1 potency was observed”.

On to `O=C(CCCCCCC(=O)Nc1ccccc1)NO` [Vorinostat, vorinostat], for which the “IRS score (SSTR2 expression in tumors)” value in the data set on SSTR2 (NCI-H69 tumors, Day 6, Vorinostat IP q.d.x5, vehicle 6) was 12. Moreover, in the data set on SSTR2 (normal spleen after Vorinostat treatment), the “SSTR2 expression in normal spleen tissues” value was “an increase in expression was not observed”. Further, the NCI-H69 cell proliferation entry in the data set with NCI-H69 cells (Vorinostat alone) is “no effect”.

The values are drawn from patent US20210186978A1, “COMBINATION THERAPY” (TARVEDA THERAPEUTICS, INC., priority 2018, published 2021).
